Assay results taken from ChEMBL document CHEMBL1133789, “The discovery of anthranilic acid-based MMP inhibitors. Part 1: SAR of the 3-position” (Bioorg Med Chem Lett, 2001).
Each block holds one compound with its values, some of them ahead of it. The source made the active and inactive calls.

Experiments:
[1] = target: T1, Interstitial collagenase (Homo sapiens) (UniProt P03956); experiment: Inhibition of Matrix metalloprotease-1 (inactive)
T1 sequence (whole entry): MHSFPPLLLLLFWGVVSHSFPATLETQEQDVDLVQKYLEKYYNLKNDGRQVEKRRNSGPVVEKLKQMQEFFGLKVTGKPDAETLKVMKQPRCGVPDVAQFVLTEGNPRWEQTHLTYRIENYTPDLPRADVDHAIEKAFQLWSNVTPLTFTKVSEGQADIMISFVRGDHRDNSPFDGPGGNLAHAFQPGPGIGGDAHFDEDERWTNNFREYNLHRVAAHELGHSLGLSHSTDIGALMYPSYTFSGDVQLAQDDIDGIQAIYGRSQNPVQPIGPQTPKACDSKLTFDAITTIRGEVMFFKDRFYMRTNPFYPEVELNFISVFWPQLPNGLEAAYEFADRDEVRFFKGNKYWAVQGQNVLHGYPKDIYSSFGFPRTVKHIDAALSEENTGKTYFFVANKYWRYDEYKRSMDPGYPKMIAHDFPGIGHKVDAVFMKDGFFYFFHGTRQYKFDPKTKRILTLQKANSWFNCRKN

Interstitial collagenase = target: T2, Interstitial collagenase (Homo sapiens, UniProt P03956); experiment: Inhibitory activity against Matrix metalloprotease-1
T2 sequence (P03956 whole entry): T1 sequence (whole entry)

[2] = target: T1, Interstitial collagenase (Homo sapiens); experiment: Inhibition of Matrix metalloprotease-1 at 1 uM
[3] = target: T3, Matrix metalloproteinase-9 (Homo sapiens, UniProt P14780); experiment: Inhibitory activity against Matrix metalloprotease-9
Collagenase 3 = Collagenase 3 (Homo sapiens, UniProt P45452)
Description: Inhibitory activity against Matrix metalloprotease-13

[4] = target: Disintegrin and metalloproteinase domain-containing protein 17 (Homo sapiens, UniProt P78536)
Description: Inhibition of TNF-alpha converting enzyme (TACE)

[5] = target: T1, Interstitial collagenase (Homo sapiens); experiment: Inhibition of Matrix metalloprotease-1 at 1 uM (inactive)
Bos taurus [6] = organism: Bos taurus; experiment: animal or person; details: po, read-out: Inhibition
Rattus norvegicus = experiment: In vivo inhibition of collagen degradation in a rat sponge wrapped cartilage model at a dose of 50 mg/kg ip; format: functional; details: route intraperitoneal
Bos taurus [7] = organism: Bos taurus; experiment: Inhibition of collagen degradation in a bovine articular cartilage assay; format: functional
[8] = target: T3, Matrix metalloproteinase-9; experiment: Dose at which the compound was equipotent with CGS-27023 against matrix metalloprotease-9 in the dialysis tubing implant assay; format: functional
[9] = target: T3, Matrix metalloproteinase-9; experiment: Tested the po dose effective against Matrix metalloprotease-9 in the dialysis tubing implant assay; format: functional, organism-based

T3 sequence (P14780 whole entry): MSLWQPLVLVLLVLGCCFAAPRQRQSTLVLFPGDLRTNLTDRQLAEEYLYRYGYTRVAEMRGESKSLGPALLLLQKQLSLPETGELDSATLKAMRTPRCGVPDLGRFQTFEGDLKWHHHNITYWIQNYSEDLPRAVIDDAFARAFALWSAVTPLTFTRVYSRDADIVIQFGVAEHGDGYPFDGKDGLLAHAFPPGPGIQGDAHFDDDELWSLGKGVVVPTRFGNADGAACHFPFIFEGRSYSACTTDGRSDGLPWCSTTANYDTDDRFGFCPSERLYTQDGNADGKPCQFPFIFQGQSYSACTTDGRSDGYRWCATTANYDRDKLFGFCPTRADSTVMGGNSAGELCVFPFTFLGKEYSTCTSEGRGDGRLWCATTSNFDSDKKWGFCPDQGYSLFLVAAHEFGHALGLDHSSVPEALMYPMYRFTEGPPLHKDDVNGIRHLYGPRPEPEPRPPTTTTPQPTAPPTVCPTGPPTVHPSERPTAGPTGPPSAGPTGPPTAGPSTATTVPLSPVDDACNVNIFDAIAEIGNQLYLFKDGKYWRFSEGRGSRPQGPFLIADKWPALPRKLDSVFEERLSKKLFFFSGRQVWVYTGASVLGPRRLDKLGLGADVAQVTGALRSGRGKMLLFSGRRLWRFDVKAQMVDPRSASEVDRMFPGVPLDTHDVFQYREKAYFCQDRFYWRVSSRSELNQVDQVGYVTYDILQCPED
Chain of Disintegrin and metalloproteinase domain-containing protein 17 (P78536 whole entry, the tested form may be a part): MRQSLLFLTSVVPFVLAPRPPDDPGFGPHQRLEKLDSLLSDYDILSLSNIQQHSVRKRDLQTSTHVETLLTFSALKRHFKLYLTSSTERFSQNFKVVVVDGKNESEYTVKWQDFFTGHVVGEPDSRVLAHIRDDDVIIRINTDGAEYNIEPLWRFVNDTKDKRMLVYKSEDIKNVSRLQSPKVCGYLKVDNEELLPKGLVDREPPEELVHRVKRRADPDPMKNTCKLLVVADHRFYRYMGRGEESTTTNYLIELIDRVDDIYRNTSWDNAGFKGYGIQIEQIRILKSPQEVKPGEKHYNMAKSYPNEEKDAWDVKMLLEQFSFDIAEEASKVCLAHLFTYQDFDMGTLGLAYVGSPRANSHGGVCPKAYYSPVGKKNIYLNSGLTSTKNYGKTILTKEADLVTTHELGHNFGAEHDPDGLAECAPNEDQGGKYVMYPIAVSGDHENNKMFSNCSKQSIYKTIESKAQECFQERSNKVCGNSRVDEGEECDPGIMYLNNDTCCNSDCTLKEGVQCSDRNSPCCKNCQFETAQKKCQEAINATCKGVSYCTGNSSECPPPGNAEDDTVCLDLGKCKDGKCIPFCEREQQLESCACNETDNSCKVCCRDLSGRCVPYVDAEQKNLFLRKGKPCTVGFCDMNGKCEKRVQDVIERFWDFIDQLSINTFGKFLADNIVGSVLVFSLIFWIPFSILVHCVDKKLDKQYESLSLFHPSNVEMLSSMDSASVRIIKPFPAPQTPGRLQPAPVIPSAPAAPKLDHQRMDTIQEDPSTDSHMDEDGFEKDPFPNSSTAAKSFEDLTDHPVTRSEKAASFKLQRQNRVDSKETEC

inhibition [1]: inactive
SMILES: COc1ccc(S(=O)(=O)N(Cc2ccccc2)c2ccc(C(=O)NO)cc2)cc1

IC50 (Interstitial collagenase): 520 nM
SMILES: COc1ccc(S(=O)(=O)N(Cc2ccccc2)c2c(OC)cccc2C(=O)NO)cc1

SMILES: COc1ccc(S(=O)(=O)N(Cc2ccccc2)c2c(C(=O)NO)cccc2N(C)C)cc1
inhibition [2]: 19%

SMILES: COc1ccc(S(=O)(=O)N(Cc2ccccc2)c2c(OCC(=O)NO)cccc2C(=O)NO)cc1
IC50 [3]: 2 nM | IC50 (Collagenase 3): 1 nM | IC50 [4]: 81 nM

inhibition [5]: inactive
SMILES: COc1ccc(S(=O)(=O)N(Cc2ccccc2)c2cccc(C(=O)NO)c2)cc1

SMILES: COc1ccc(S(=O)(=O)N(Cc2ccccc2)c2c(C(=O)NO)cccc2C(F)(F)F)cc1
inhibition [2]: 41% | IC50 (Collagenase 3): 136 nM

SMILES: COc1ccc(S(=O)(=O)N(Cc2cccnc2)[C@@H](C(=O)NO)C(C)C)cc1 [CGS-27023A]
inhibition in vivo at 50 mg/kg (Bos taurus [6]): 52%

IC50 (Interstitial collagenase): 143 nM | DOSE [8]: 50 mg/kg | ED50 [9]: 33 mg/kg
SMILES: COc1ccc(S(=O)(=O)N(Cc2cccnc2)c2c(C)cccc2C(=O)NO)cc1
inhibition in vivo at 50 mg/kg (Rattus norvegicus): 51% | Inhibition (Bos taurus [7]): 49%

SMILES: COC(=O)c1cccc(C(=O)NO)c1N(Cc1cccnc1)S(=O)(=O)c1ccc(OC)cc1
IC50 [3]: 6 nM

SMILES: COc1ccc(S(=O)(=O)N(Cc2ccccc2)c2c(OC(C)(C)C(=O)NO)cccc2C(=O)NO)cc1
IC50 [3]: 4 nM | IC50 (Interstitial collagenase): 597 nM

SMILES: COc1ccc(S(=O)(=O)N(Cc2ccccc2)c2c(C(=O)NO)cccc2[N+](=O)[O-])cc1
IC50 [3]: 13 nM | IC50 (Interstitial collagenase): 202 nM | IC50 (Collagenase 3): 42 nM
